# Reference: patent US9597407B2, “Targeted antimicrobial moieties” (C3 Jian, Inc., priority 2009, dated 2017)
# Entries after “also recorded” stand apart in the source; their conditions may differ.
# System: bacteria
# Experiment: Binding of targeting peptides to microorganisms (Table 3)
# Details: peptide binding in aqueous buffers varied by peptide solubility; preferably 1x PBS
row,Substance,Target(s) (microorganism bound by the targeting peptide)
1,1T-21 (YVEEAVRAALKKEARISTEDTPVNLPSFDC; Peptide with targeting and/or antimicrobial activity) [Peptide 1T-21],S. mutans; also recorded: P. aeruginosa
2,1T-22 (VPLDDGTRRPEVARNRDKDRED; Peptide with targeting and/or antimicrobial activity) [Peptide 1T-22],S. epidermidis; also recorded: P. aeruginosa
3,1T-23 (PALVDLSNKEAVWAVLDDHS; Peptide with targeting and/or antimicrobial activity) [Peptide 1T-23],S. mutans; also recorded: P. aeruginosa
4,1T-24 (EEAEEKLAEVSQAVKRLVR; Peptide with targeting and/or antimicrobial activity) [Peptide 1T-24],P. aeruginosa
5,1T-25 (VGLDVSVLVLFFGLQLLSVLLGAMIR; Peptide with targeting and/or antimicrobial activity) [Peptide 1T-25],S. aureus; also recorded: S. epidermidis; also recorded: C. xerosis; also recorded: C. striatum; also recorded: P. aeruginosa
6,1T-26 (LTILPTTFFAIIVPILAVAFIAYSGFKIKGIVEHKDQW; Peptide with targeting and/or antimicrobial activity) [Peptide 1T-26],S. mutans; also recorded: S. aureus; also recorded: S. epidermidis; also recorded: C. jeikeium; also recorded: C. xerosis; also recorded: C. striatum; also recorded: P. aeruginosa
7,1T-27 (ALFVSLEQFLVVVAKSVFALCHSGTLS; Peptide with targeting and/or antimicrobial activity) [Peptide 1T-27],S. mutans; also recorded: S. aureus; also recorded: S. epidermidis; also recorded: C. jeikeium; also recorded: C. xerosis; also recorded: C. striatum; also recorded: P. aeruginosa
8,1T-28 (VSRDEAMEFIDREWTTLQPAGKSHA; Peptide with targeting and/or antimicrobial activity) [Peptide 1T-28],P. aeruginosa
9,1T-29 (GSVIKKRRKRMSKKKHRKMLRRTRVQRRKLGK; Peptide with targeting and/or antimicrobial activity) [Peptide 1T-29],S. epidermidis; also recorded: C. jeikeium; also recorded: C. xerosis; also recorded: C. striatum; also recorded: P. aeruginosa; also recorded: S. mutans; also recorded: S. aureus
10,1T-30 (GKAKPYQVRQVLRAVDKLETRRKKGGR; Peptide with targeting and/or antimicrobial activity) [Peptide 1T-30],S. aureus; also recorded: S. epidermidis; also recorded: C. xerosis; also recorded: C. striatum; also recorded: P. aeruginosa
11,1T-31 (NATGTDIGEVTLTLGRFS; Peptide with targeting and/or antimicrobial activity) [Peptide 1T-31],S. mutans; also recorded: P. aeruginosa
12,1T-32 (VSFLAGWLCLGLAAWRLGNA; Peptide with targeting and/or antimicrobial activity) [Peptide 1T-32],S. mutans
13,1T-33 (VRTLTILVIFIFNYLKSISYKLKQPFENNLAQSMISI; Peptide with targeting and/or antimicrobial activity) [Peptide 1T-33],S. aureus; also recorded: S. epidermidis; also recorded: C. jeikeium; also recorded: C. xerosis; also recorded: C. striatum; also recorded: P. aeruginosa
14,1T-34 (AFWLNILLTLLGYIPGIVHAVYIIAKR; Peptide with targeting and/or antimicrobial activity) [Peptide 1T-34],S. aureus; also recorded: S. epidermidis; also recorded: C. jeikeium; also recorded: C. xerosis; also recorded: C. striatum; also recorded: P. aeruginosa
15,1T-35 (EICLTLVFPIRGSYSEAAKFPVPIHIVEDGTVELPK; Peptide with targeting and/or antimicrobial activity) [Peptide 1T-35],P. aeruginosa
16,1T-36 (VYRHLRFIDGKLVEIRLERK; Peptide with targeting and/or antimicrobial activity) [Peptide 1T-36],S. aureus; also recorded: S. epidermidis; also recorded: C. jeikeium; also recorded: C. xerosis; also recorded: C. striatum; also recorded: P. aeruginosa
17,1T-37 (YIVGALVILAVAGLIYSMLRKA; Peptide with targeting and/or antimicrobial activity) [Peptide 1T-37],S. mutans; also recorded: S. aereus; also recorded: S. epidermidis; also recorded: C. jeikeium; also recorded: C. xerosis; also recorded: C. striatum; also recorded: P. aeruginosa
18,1T-38 (VMFVLTRGRSPRPMIPAY; Peptide with targeting and/or antimicrobial activity) [Peptide 1T-38],S. mutans; also recorded: S. aereus; also recorded: S. epidermidis; also recorded: C. jeikeium; also recorded: C. xerosis; also recorded: C. striatum; also recorded: P. aeruginosa

row,Substance,Target(s) (microorganism bound by the targeting peptide)
1,1T-39 (FGFCVWMYQLLAGPPGPPA; Peptide with targeting and/or antimicrobial activity) [Peptide 1T-39],S. mutans; also recorded: P. aeruginosa
2,1T-40 (QRVSLWSEVEHEFR; Peptide with targeting and/or antimicrobial activity) [Peptide 1T-40],S. mutans; also recorded: P. aeruginosa
3,1T-41 (KRGSKIVIAIAVVLIVLAGVWVW; Peptide with targeting and/or antimicrobial activity) [Peptide 1T-41],S. mutans; also recorded: S. aureus; also recorded: S. epidermidis; also recorded: C. jeikeium; also recorded: C. striatum; also recorded: P. aeruginosa
4,1T-42 (TVLDWLSLALATGLFVYLLVALLRADRA; Peptide with targeting and/or antimicrobial activity) [Peptide 1T-42],S. aureus; also recorded: S. epidermidis; also recorded: C. xerosis; also recorded: C. striatum; also recorded: P. aeruginosa
5,1T-43 (DRCLSVLSWSPPKVSPLI; Peptide with targeting and/or antimicrobial activity) [Peptide 1T-43],C. jeikium; also recorded: P. aeruginosa
6,1T-44 (DPALADFAAGMRAQVRT; Peptide with targeting and/or antimicrobial activity) [Peptide 1T-44],S. mutans; also recorded: S. aureus; also recorded: S. epidermidis; also recorded: C. jeikeium; also recorded: C. striatum; also recorded: P. aeruginosa
7,1T-45 (WTKPSFTDLRLGFEVTLYFANR; Peptide with targeting and/or antimicrobial activity) [Peptide 1T-45],S. aureus; also recorded: S. epidermidis; also recorded: C. striatum; also recorded: P. aeruginosa
8,1T-46 (FSFKQRVMFRKEVERLR; Peptide with targeting and/or antimicrobial activity) [Peptide 1T-46],S. aureus; also recorded: S. epidermidis; also recorded: C. jeikeium; also recorded: C. xerosis; also recorded: C. striatum; also recorded: P. aeruginosa
9,1T-47 (VIKISVPGQVQMLIP; Peptide with targeting and/or antimicrobial activity) [Peptide 1T-47],S. mutans; also recorded: S. epidermidis; also recorded: P. aeruginosa
10,1T-48 (KLQVHHGRATHTLLLQPPLCAPGTIR; Peptide with targeting and/or antimicrobial activity) [Peptide 1T-48],S. aureus; also recorded: S. epidermidis; also recorded: C. jeikeium; also recorded: C. xerosis; also recorded: C. striatum; also recorded: P. aeruginosa
11,1T-49 (SLVRIHDQQPWVTRGAFIDAARTCS; Peptide with targeting and/or antimicrobial activity) [Peptide 1T-49],S. aureus; also recorded: S. epidermidis; also recorded: C. jeikeium; also recorded: P. aeruginosa
12,1T-50 (HSDEPIPNILFKSDSVH; Peptide with targeting and/or antimicrobial activity) [Peptide 1T-50],P. aeruginosa
13,1T-51 (GKPKRMPAEFIDGYGQALLAGA; Peptide with targeting and/or antimicrobial activity) [Peptide 1T-51],S. aureus; also recorded: P. aeruginosa
14,1T-52 (DEYPAKLPLSDKGATEPRRH; Peptide with targeting and/or antimicrobial activity) [Peptide 1T-52],S. aureus; also recorded: C. xerosis; also recorded: P. aeruginosa
15,1T-53 (SDILAEMFEKGELQTLVKDAAAKANA; Peptide with targeting and/or antimicrobial activity) [Peptide 1T-53],P. aeruginosa
16,1T-54 (RWVSCNPSWRIQ; Peptide with targeting and/or antimicrobial activity) [Peptide 1T-54],S. epidermidis; also recorded: C. xerosis; also recorded: C. striatum; also recorded: P. aeruginosa
17,1T-55 (NHKTLKEWKAKWGPEAVESWATLLG; Peptide with targeting and/or antimicrobial activity) [Peptide 1T-55],C. xerosis; also recorded: P. aeruginosa
18,1T-56 (LALIGAGIWMIRKG; Peptide with targeting and/or antimicrobial activity) [Peptide 1T-56],C. xerosis; also recorded: P. aeruginosa
